According to paper PMC10419174, “WR1065 conjugated to thiol-PEG polymers as novel anticancer prodrugs: broad spectrum efficacy, synergism, and drug resistance reversal” (Frontiers in Oncology, 2023):
“And” between values parts separate entries of the source, which are not always exact repeats. Equal values may be shown once. Read-outs that look alike come from different tables or passages of the source. Marks after values point to notes of the source that are not given here.

How the values were obtained:
Ovary SKOV3 cells = assay: cells; conditions: drug alone, 48 h; 4SP65/cisplatin study; ND = not definable, highest concentration in parentheses
Description: (§1) The percentage of growth inhibition was calculated as follows: […]

Ovary TOV21G cells = assay: cells; conditions: for Fold increase in efficacy: drug alone ÷ drug in 4SP65-DDP combination
Description: as §1

Prostate LNCaP cells = assay: cells
Description: as §1

Prostate PC3 cells = assay: cells
Description: as §1

human cancer cell lines = assay: cells
Description: as §1

[1] = Prodrug stability in culture medium with alamarBlue, cell free, 72 h; type: in vitro ADME; conditions: standard growth medium, 37°C
Description: To determine drug stability in tissue culture medium for short-term treatments, 4SP65 was added to medium containing alamarBlue reagent in 96-well plates and incubated in the absence of cells at 37°C for 72 h. After this incubation period, wells with medium containing alamarBlue alone or both alamarBlue and 4SP65 were assessed for fluorescence readings using a Tecan Infinite 200 PRO plate reader (San Jose, CA, USA).

[2] = 48-h treatment, amifostine ND = not definable up to 500 µM
[3] = drug alone, 48 h, 4SP65/cisplatin study
[4] = 4SP65: average across 15 cell lines, 48 h
[5] = 15 cell lines for 4SP65, 11 for 1LP65
[6] = average of A549, H460, PPMMill, LNCaP
[7] = average of HCC38, MDA-MB-231, H1975, HMESO1, PANC1, DU145, PC3
[8] = averages of dose-response metrics across the panel
[9] = averages over 11 cell lines, minimal fold differences

4-star-PEG-S-S-WR1065 [4SP65]
LC99 (Ovary SKOV3 cells): 10.0 ± 0.8 µM | TGI (Ovary SKOV3 cells): 7.3 ± 0.8 µM | CC50 (Ovary TOV21G cells): 2700 nM | gains in total growth inhibition and cytolytic effects, range (Ovary TOV21G cells; 4SP65-cisplatin combined): 2.4- to 3.2 fold | GI50 (Ovary TOV21G cells; [2]): 900 ± 400 nM | IC50 (Ovary TOV21G cells; [2]): 1200 ± 300 nM | TGI (Ovary TOV21G cells; [2]): 2.0 ± 0.4 µM | LC99, drug in combination (CMB) (Ovary TOV21G cells; amount of each drug in combination, ratio 14% 4SP65:86% DDP, 48 h): 0.95 µM | Dose reduction value 1LP65 ÷ 4SP65 (Ovary TOV21G cells; at GI50): 24 fold | Dose reduction value AMF ÷ 4SP65 (Ovary TOV21G cells; at GI50): 52 fold | Dose reduction value 1LP65 ÷ 4SP65 (Ovary TOV21G cells; at IC50): 22 fold | Dose reduction value AMF ÷ 4SP65 (Ovary TOV21G cells; at IC50): 41 fold | Dose reduction value 1LP65 ÷ 4SP65 (Ovary TOV21G cells; at LC50): 19 fold | Dose reduction value 1LP65 ÷ 4SP65 (Ovary TOV21G cells; at LC99): 31 fold | Dose reduction value 1LP65 ÷ 4SP65 (Ovary TOV21G cells; at TGI): 27 fold | Fold increase in efficacy (Ovary TOV21G cells; at GI50): 2.3 (NS) fold | Fold increase in efficacy (Ovary TOV21G cells; at IC50): 1.9 (NS) fold | Fold increase in efficacy (Ovary TOV21G cells; at LC50): 3.0*** fold | Fold increase in efficacy (Ovary TOV21G cells; at LC99): 3.2*** fold | Fold increase in efficacy (Ovary TOV21G cells; at TGI): 2.4* fold | GI50 (Ovary TOV21G cells; [3]): 930 ± 370 nM | IC50 (Ovary TOV21G cells; [3]): 1200 ± 300 nM | LC99 (Ovary TOV21G cells; [3]): 3.0 µM and 3.0 ± 0.2 µM | TGI (Ovary TOV21G cells; [3]): 2.0 ± 0.4 µM | CC50 (Prostate LNCaP cells): 7.3 ± 1.8 µM | GI50 (Prostate LNCaP cells; [2]): 2500 ± 1000 nM | IC50 (Prostate LNCaP cells; [2]): 3.1 ± 1.5 µM | LC99 (Prostate LNCaP cells; [2]): 10.1 ± 1.0 µM | TGI (Prostate LNCaP cells; [2]): 4.7 ± 1.5 µM | Dose reduction value 1LP65 ÷ 4SP65 (Prostate LNCaP cells; at GI50): 11 fold | Dose reduction value AMF ÷ 4SP65 (Prostate LNCaP cells; at GI50): 60 fold | Dose reduction value 1LP65 ÷ 4SP65 (Prostate LNCaP cells; at IC50): 14 fold | Dose reduction value AMF ÷ 4SP65 (Prostate LNCaP cells; at IC50): 122 fold | Dose reduction value 1LP65 ÷ 4SP65 (Prostate LNCaP cells; at LC50): 12 fold | Dose reduction value 1LP65 ÷ 4SP65 (Prostate LNCaP cells; at LC99): 11 fold | Dose reduction value 1LP65 ÷ 4SP65 (Prostate LNCaP cells; at TGI): 11 fold | CC50 (Prostate PC3 cells): 4.5 ± 0.6 µM | GI50 (Prostate PC3 cells; [2]): 700 ± 200 nM | IC50 (Prostate PC3 cells; [2]): 2000 ± 300 nM | LC99 (Prostate PC3 cells; [2]): 5.8 ± 0.8 µM | TGI (Prostate PC3 cells; [2]): 2.1 ± 0.5 µM and 2.1 µM | Dose reduction value 1LP65 ÷ 4SP65 (Prostate PC3 cells; at GI50): 25 fold | Dose reduction value AMF ÷ 4SP65 (Prostate PC3 cells; at GI50): 58 fold | Dose reduction value 1LP65 ÷ 4SP65 (Prostate PC3 cells; at IC50): 19 fold | Dose reduction value AMF ÷ 4SP65 (Prostate PC3 cells; at IC50): 52 fold | Dose reduction value 1LP65 ÷ 4SP65 (Prostate PC3 cells; at LC50): 13 fold | Dose reduction value 1LP65 ÷ 4SP65 (Prostate PC3 cells; at LC99): 15 fold | Dose reduction value 1LP65 ÷ 4SP65 (Prostate PC3 cells; at TGI): 19 fold | Dose reduction value AMF ÷ 4SP65 (Prostate PC3 cells; at TGI): 143 fold | fold more potent than 1LP65, average (human cancer cell lines): 10.4 fold | fold increases in cytostatic and cytolytic activities, range (human cancer cell lines; 4SP65-cisplatin combined, H460 and SKOV3 cells): 1.3- to 36 fold | gains of effect, range (not significant) (human cancer cell lines; 4SP65-cisplatin combined, HMESO1 and PPMMill cells): 1.1- to 1.3 fold | LC99, All cell lines (human cancer cell lines; [4]): 11.2 ± 1.2 µM | TGI, All cell lines (human cancer cell lines; [4]): 6.8 ± 1.1 µM | LC99, range for individual cell lines (human cancer cell lines; [5]): 3.0 to 21.1 µM | TGI, range for individual cell lines (human cancer cell lines; [5]): 2.0 to 16.3 µM | fold more effective as a cytostatic agent than PRIMA-1 or APR-246 (human cancer cell lines; TP53 mutant cells): 2.3- to 30 fold | fold more effective as a cytostatic agent than PRIMA-1 or APR-246 (human cancer cell lines; TP53 wild-type cells): 4.3- to 21 fold | LC99, TP53 Wild-Type (human cancer cell lines; [6]): 14.4 ± 1.6 µM | TGI, TP53 Wild-Type (human cancer cell lines; [6]): 9.5 ± 2.0 µM | LC99, TP53 Mutant (human cancer cell lines; [7]): 9.1 ± 0.9 µM | TGI, TP53 Mutant (human cancer cell lines; [7]): 4.4 ± 0.9 µM | fold more potent than amifostine as a cytostatic agent, average (human cancer cell lines; [8]): 55 fold | fold more potent than amifostine as a cytostatic agent, range (human cancer cell lines; [8]): 45- to 63 fold | Fold difference in drug potency 4SP65 vs 1LP65: GI50 (human cancer cell lines; averages over 11 cell lines): 10.2 | Fold difference in drug potency 4SP65 vs 1LP65: IC50 (human cancer cell lines; averages over 11 cell lines): 9.7 | Fold difference in drug potency 4SP65 vs 1LP65: LC50 (human cancer cell lines; averages over 11 cell lines): 10.4 | Fold difference in drug potency 4SP65 vs 1LP65: LC99 (human cancer cell lines; averages over 11 cell lines): 11.3 | Fold difference in drug potency 4SP65 vs 1LP65: TGI (human cancer cell lines; averages over 11 cell lines): 10.2 | Fold difference in drug potency vs amifostine: GI50 (human cancer cell lines; [9]): > 45 | Fold difference in drug potency vs amifostine: IC50 (human cancer cell lines; [9]): > 57 | Fold difference in drug potency vs amifostine: TGI (human cancer cell lines; [9]): > 63 | fold more potent than 1LP65, range (human cancer cell lines; depending on the dose-response metric): 9.7- to 11.3 fold | fold greater effect than amifostine (human cancer cell lines; four cell lines where amifostine GI50 <100 µM): 38 fold | GI50 (human cancer cell lines; read-out: GI50, All cell lines, 4SP65: average across 15 cell lines, 48 h): 4.1 ± 0.8 µM | GI50 (human cancer cell lines; read-out: GI50, TP53 Mutant, average of HCC38, MDA-MB-231, H1975, HMESO1, PANC1, DU145, PC3): 2.6 ± 0.8 µM | GI50 (human cancer cell lines; read-out: GI50, TP53 Wild-Type, average of A549, H460, PPMMill, LNCaP): 5.8 ± 1.4 µM | GI50 (human cancer cell lines; read-out: GI50, range for individual cell lines, 15 cell lines for 4SP65, 11 for 1LP65): 0.7 to 10.6 µM | GI50 (human cancer cell lines; read-out: GI50 range, seven cell lines compared with NCI data (Table 5)): 0.7 to 9.4 µM | GI50 (human cancer cell lines; read-out: average GI50, four cell lines where amifostine GI50 <100 µM): 1.7 µM | fold potency greater than predicted by four versus one WR1065/molecule (human cancer cell lines; versus 1LP65): ~ 2.5 fold | change in fluorescence of alamarBlue reagent versus control wells [1]: no significant change
